Test results from patent publication US20250090498A1, “TREATMENT OF PRIMARY CTLA-4 CHECKPOINT RELATED IMMUNODEFICIENCIES” (ADIENNE PHARMA & BIOTECH SA, priority 2023, published 2025).
Read-outs that look alike come from different tables or passages of the source.

Tests used:
immune-mediated colitis = immune-mediated colitis in Rag1−/− mice infused with CD4+ T cells and treated with anti-CTLA-4 mAb; format: in vivo
Method: Immunodeficient Rag1^−/− mice reconstituted with naïve CD4^+ T cells and treated with anti-CTLA-4 monoclonal antibody. Rag1−/− mice, mice homozygous for the RagltmlMom mutation produce no mature T cells or B cells. Their phenotype can be described as a “non-leaky” immune deficiency. Rag1−/− 8-10 weeks old mice were injected intraperitoneally with 4×10^5 naïve CD4^+ T cells purified from spleens of C57BL/6 mice and treated with anti-CTLA-4 mAb or control IgG the day after T-cell reconstitution and then at days 0, 4, 8, 12, and 16. […] Mice were monitored daily for overall mortality and body weight loss and sacrificed on day 21.

B16 tumor cells = experiment: anti-CTLA-4-responsive B16 melanoma model; format: in vivo, C57BL/6 mice
Method: For FIGS. 12A-12E, C57BL/6 mice were subcutaneously injected with B16 tumor cells and administered 100 μg anti-CTLA-4 mAb or isotype control intraperitoneally four times at 3-day intervals up to 16 days. 3-IAld was administered intragastrically every other day. Mice were evaluated for (FIG. 12A) tumor growth, (FIG. 12B) histology (periodic acid-Schiff staining), (FIG. 12C) immunohistochemistry for CD8+ and CD4+ tumor-infiltrating lymphocytes (TIL), (FIG. 12D) number of positive TIL per high-power field, HPF and (FIG. 12E) Cxcl9 and Perforin expression. (FIGS. 12F-12J) C57BL/6 mice were orthotopically injected with LLC cells and administered 200 μg anti-PD-1 mAb or isotype control intraperitoneally five times at 3-day intervals up to 18 days. 3-IAld was administered intragastrically every other day. Mice were evaluated for (FIG. 12F) % survival, (FIG. 12G) lung weight, (FIG. 12H) lung gross pathology, (FIGS. 12I, 12J) CD4+CD25+Foxp3+ cells. Photographs were taken with a high-resolution microscope, ×40 magnification (scale bars, 100 μm). Each in vivo experiment includes three mice per group (nine mice in each experiment). […]
(§1) The potential application of 3-IAld requires that its immunoregulatory activity would not impinge the tumor immunosurveillance. To this purpose, the effect of 3-IAld was assessed in the anti-CTLA-4-responsive B16 melanoma model (Renga et al, 2022).

LLC cells = experiment: Lewis lung carcinoma (LLC) model with anti-PD-1 antibody; format: in vivo, C57BL/6 mice
Method: For FIGS. 12A-12E, C57BL/6 mice were subcutaneously injected with B16 tumor cells and administered 100 μg anti-CTLA-4 mAb or isotype control intraperitoneally four times at 3-day intervals up to 16 days. 3-IAld was administered intragastrically every other day. Mice were evaluated for (FIG. 12A) tumor growth, (FIG. 12B) histology (periodic acid-Schiff staining), (FIG. 12C) immunohistochemistry for CD8+ and CD4+ tumor-infiltrating lymphocytes (TIL), (FIG. 12D) number of positive TIL per high-power field, HPF and (FIG. 12E) Cxcl9 and Perforin expression. (FIGS. 12F-12J) C57BL/6 mice were orthotopically injected with LLC cells and administered 200 μg anti-PD-1 mAb or isotype control intraperitoneally five times at 3-day intervals up to 18 days. 3-IAld was administered intragastrically every other day. Mice were evaluated for (FIG. 12F) % survival, (FIG. 12G) lung weight, (FIG. 12H) lung gross pathology, (FIGS. 12I, 12J) CD4+CD25+Foxp3+ cells. Photographs were taken with a high-resolution microscope, ×40 magnification (scale bars, 100 μm). Each in vivo experiment includes three mice per group (nine mice in each experiment). Data are represented as mean±SEM. One-way analysis of variance, Bonferroni post hoc test. *P<0.05, **P<0.01, ***P<0.001.
as §1

[1] = toxicology, 3 weeks, H&E tissue pathology in naive C57BL/6 and AhR−/− mice; format: in vivo; details: Eudragit-formulated, intragastrically every other day for 3 weeks, two concentrations
Excerpt: Eudragit-formulated 3-IAld (Puccetti et al, 2018) was given intragastrically every other day, at the doses indicated for 3 weeks to naive C57BL/6 and AhR−/− mice. At the end of treatment, mice were sacrificed, and tissue pathology blindly examined on different organs after Hematoxylin and Eosin (H&E) staining.

AhR [2] = details: cited from earlier work
DSS-induced colitis = details: cited from earlier work
[3] = test system: graft-versus-host disease (GvHD); details: mouse, in vivo; cited from earlier work
[4] = enteric microparticles; cited from earlier work
AhR [5] = experiment: AhR luciferase reporter in mouse hepatoma cells H1L6.1c3; format: cell-based; set-up: dose or concentration left out as unconfirmed; details: higher RLU at 2 h lasting until 24h
Method: The ability of 1ME3CA was comparatively assessed here in mouse hepatoma cells (H1L6.1c3), kindly provided by Allison K. Ehrlich (Meyer Hall, University of California, Davis, United States), containing the stably integrated AhR xenobiotic responsive element driven by a firefly luciferase reporter plasmid, pGudLuc6.167. Cells were plated in MEMA (Gibco), supplemented with 10% fetal serum bovine and 1% penicillin-streptomycin solution, in 24-well plate and stimulated with different concentrations of either 3-IAld or 1ME3CA. Luciferase activity, calculated as relative light units (RLU) per microgram of protein and expressed as fold induction, was carried at 2 or 24 hours of exposure.

## O=Cc1c[nH]c2ccccc12 [3-IAld, 1H-indole-3-carbaldehyde]
immune-mediated colitis; 3-IAld 18 mg/kg
  progression of immune-mediated colitis (overall): limits progression
immune-mediated colitis; 3-IAld 18 mg/kg intragastrically every other day, 21 days
  weight loss: reduced
immune-mediated colitis; 3-IAld 18 mg/kg, day 21
  colon histopathology: improved
  gross pathology: improved
B16 tumor cells; 3-IAld with anti-CTLA-4 mAb
  recruitment of CD4+ and CD8+ tumour-infiltrating lymphocytes: did not affect
B16 tumor cells; B16 and LLC models
  development of antitumor immunity / tumor immunosurveillance (overall): does not interfere
LLC cells; 3-IAld with 200 μg anti-PD-1 mAb
  therapeutic efficacy of anti-PD-1 antibody: did not interfere
LLC cells; 3-IAld with anti-PD-1 mAb
  ability of anti-PD-1 antibody to increase survival: did not prevent
  ability of anti-PD-1 antibody to reduce the recruitment of Foxp3+CD25+ Treg cells in the lung: did not prevent
LLC cells; 3-IAld with anti-PD-1 mAb, lung
  ability of anti-PD-1 antibody to improve gross pathology: did not prevent
LLC cells; 3-IAld with anti-PD-1 mAb, lung weight
  ability of anti-PD-1 antibody to decrease tumour growth: did not prevent
[1]
  tissue pathology in different organs (H&E): absence of visible tissue pathology
AhR [2]; as printed in b215
  dose range inducing luciferase activity: 0.1 to 100 mM
AhR [2]; as printed in b238
  dose range inducing luciferase activity: 0.0001 to 0.1 mM
DSS-induced colitis; intragastric administration, AhR-dependent manner
  IL-22 production: induced IL-22 production
DSS-induced colitis; mouse, in vivo
  therapeutic efficacy in a murine model of dextran-induced colitis: therapeutic efficacy
[3]
  gut epithelial damage: limited
  inflammatory cytokine production: decreased
  transepithelial bacterial translocation: reduced
[4]
  inflammatory histopathology and barrier function: improved

## Cn1cc(C(=O)O)c2ccccc21 [1-methylindole-3-carboxylic acid, 1-Methyl-1H-indole-3-carboxylic acid]
AhR [5]
  induction of luciferase activity (RLU, fold induction) versus 3-IAld: more potent inducer of luciferase activity
